Reference: patent US20080125432A1 (Devgen NV, priority 2004, published 2008)

Experiments:
Kv1.5 = target: T1, Kv1.5 (Homo sapiens, UniProt P22460); test: Whole-cell patch clamp in human atrial myocytes: Kv1.5 current calculated from Isus; type: cell-based
T1 construct: endogenous in cells; host or cells: freshly isolated human atrial myocytes
Procedure: (§1) The blocking profile of the compounds of the invention is determined on the following channels of the human atrial myocytes: INa, Ito, Isus and IK1 channel currents.
(§2) Human atrial myocytes: Myocytes were prepared from specimens with grossly normal anatomical aspect, excised from hearts of patients with normal P-wave electrocardiogram, undergoing bypass surgery. Human atrial sample were obtained following approval by the ethical committee. […]
(§3) Experiments were performed at room temperature (20-25° C.) for INa and at 32-34° C. for Ito, Isus, IK1. Currents were measured using the whole-cell variant of the patch clamp method. […]
(§4) After rupture of the cell membrane to enter the whole-cell mode, current amplitude and kinetics were allowed to stabilize for 3-7 min before initiating the experimental procedure. K^+ currents recorded from human atrial myocytes were elicited by a 500 ms pulse to +60 mV from a holding potential of −50 mV for Ito and Isus. Ito was measured as a peak current amplitude whereas Isus as a current present at the end of the 500 ms voltage pulse. In addition, the area under the curve, before and after compound, were measured over the course of the pulse period. […]

[1] = tested on: isolated guinea pig right ventricular papillary muscle; test: Ex-vivo organ study: functional refractory period in isolated guinea pig right ventricular papillary muscle; conditions: conc 10^−5 mol/l
Source text: The compounds were checked for their effect on the force of contraction, stimulation threshold and for the Functional Refractory Period (FRP) in isolated rat left atria (Rat LA). Rat left atria functionally express the Kv4.3 ion channel, producing the Ito current of the action potential. […] The guinea pig action potential is dominated by hERG like ion channels for the refractory currents. Consequently, activity of hERG channels in vivo should be seen in GP pap muscle preparations.
Method: Rat LA (Same Method Applies to GP pap. Muscle)
Left atria were mounted vertically in a two-chambered organ bath containing 100 ml of buffer solution (in mM: NaH2PO4 0.6, MgSO4 0.6, KCl 4.7, NaHCO3 25, glucose 4.5, NaCl-120, CaCl2 2.4). The solution was saturated with and circulated by a gas mixture containing 95% O2 and 5% CO2. The temperature was kept constant at 30° C. […] The isometric force of the preparations was measured by force transducers, connected to amplifiers, documented by a pen recorder and fed into a computer for evaluation. Force of contraction (FC), threshold stimulus (TS) and the functional refractory period (FRP) were measured at baseline (pre), 20 min after addition of compound, and after washout at the end of the experiment. Threshold stimulus, representing excitability of the tissue, was assessed by varying the voltage applied for electrical stimulation. […]

[2] = tested on: Isus (Kv1.5 + additional channels); test: Whole-cell patch clamp in human atrial myocytes: Isus; type: cell-based; conditions: n = 3 cells
Procedure: as §1, §2, §3, §4

T1 sequence (P22460 whole entry): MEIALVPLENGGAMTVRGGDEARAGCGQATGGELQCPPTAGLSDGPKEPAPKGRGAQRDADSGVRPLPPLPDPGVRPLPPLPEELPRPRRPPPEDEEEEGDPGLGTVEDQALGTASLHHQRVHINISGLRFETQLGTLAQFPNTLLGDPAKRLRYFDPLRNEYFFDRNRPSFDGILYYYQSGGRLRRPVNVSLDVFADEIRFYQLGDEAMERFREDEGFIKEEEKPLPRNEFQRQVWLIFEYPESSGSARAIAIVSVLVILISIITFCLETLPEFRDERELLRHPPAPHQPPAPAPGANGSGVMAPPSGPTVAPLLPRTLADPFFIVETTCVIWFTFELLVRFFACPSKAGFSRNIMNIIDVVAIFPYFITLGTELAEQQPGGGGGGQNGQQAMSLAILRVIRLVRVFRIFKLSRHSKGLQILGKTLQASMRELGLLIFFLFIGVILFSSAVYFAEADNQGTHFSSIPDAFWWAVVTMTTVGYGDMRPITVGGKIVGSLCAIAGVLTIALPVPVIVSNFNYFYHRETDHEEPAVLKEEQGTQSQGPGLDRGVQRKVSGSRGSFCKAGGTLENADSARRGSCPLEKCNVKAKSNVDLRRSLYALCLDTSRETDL

COc1ccccc1Nc1nc(C)c(C(=O)N[C@H]2CCC[C@@H]2OCc2ccccc2)s1 [Compound 68, 2-(2-methoxy-phenylamino)-4-methyl-thiazole-5-carboxylic acid (1S,2S)-2-(benzyloxycyclopent-1-yl) amide]
Block at 10 μM in %: Kv1.5 (calculated) (Kv1.5; 10 μM, n = 3 cells, derived from subtracting the remaining current from the end of pulse current amplitude): 81.1 ± 3.7%
IC50 (Kv1.5; dose-response analysis, Kv1.5 derived from subtracting the remaining current from the end of pulse current amplitude): 1400 nM
dFRP Guinea Pig [1]: 0 ms
Block at 10 μM in %: Isus (Kv1.5 + additional channels) [2]: 55.2 ± 6.4%
